From PubChem BioAssay AID2060898 (Molecular Pharmacology Branch, DTP, NCI, 2025)
Blank lines part the entries; values can stand above or below the molecule they belong to.

Tested on: 616215-338-R-J1-PDC complex spheroid viability
Test: Anticancer human tumor 616215-338-R-J1-PDC patient-derived colon adenocarcinoma cell line growth inhibition [RAS]
Settings: for IC50: curve of first compound; for viability, T/C: stronger effect = lower value
Procedure, shortened: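 Multi-cell-type spheroids: tumor cells plus HUVEC endothelial cells and mesenchymal stem cells. RAS-pathway inhibitors were combined with targeted agents, each dosed in half-log steps down from clinical Cmax, or from 10 microM when Cmax was unknown.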

[1] = second compound 0.000949 µM, first compound 0.00316 µM
[2] = second compound 0.000949 µM, first compound 0.01 µM
[3] = second compound 0.000949 µM, first compound 0.0316 µM
[4] = second compound 0.000949 µM, first compound 0.1 µM
[5] = second compound 0.000949 µM, first compound 0.316 µM
[6] = second compound 0.000949 µM, first compound 1 µM
[7] = second compound 0.003 µM, first compound 0.00316 µM
[8] = second compound 0.003 µM, first compound 0.01 µM
[9] = second compound 0.003 µM, first compound 0.0316 µM
[10] = second compound 0.003 µM, first compound 0.1 µM
[11] = second compound 0.003 µM, first compound 0.316 µM
[12] = second compound 0.003 µM, first compound 1 µM
[13] = second compound 0.00949 µM, first compound 0.00316 µM
[14] = second compound 0.00949 µM, first compound 0.01 µM
[15] = second compound 0.00949 µM, first compound 0.0316 µM
[16] = second compound 0.00949 µM, first compound 0.1 µM
[17] = second compound 0.00949 µM, first compound 0.316 µM
[18] = second compound 0.00949 µM, first compound 1 µM
[19] = second compound 0.03 µM, first compound 0.00316 µM
[20] = second compound 0.03 µM, first compound 0.01 µM
[21] = second compound 0.03 µM, first compound 0.0316 µM
[22] = second compound 0.03 µM, first compound 0.1 µM
[23] = second compound 0.03 µM, first compound 0.316 µM
[24] = second compound 0.03 µM, first compound 1 µM
[25] = second compound 0.0949 µM, first compound 0.00316 µM
[26] = second compound 0.0949 µM, first compound 0.01 µM
[27] = second compound 0.0949 µM, first compound 0.0316 µM
[28] = second compound 0.0949 µM, first compound 0.1 µM
[29] = second compound 0.0949 µM, first compound 0.316 µM
[30] = second compound 0.0949 µM, first compound 1 µM
[31] = second compound 0.3 µM, first compound 0.00316 µM
[32] = second compound 0.3 µM, first compound 0.01 µM
[33] = second compound 0.3 µM, first compound 0.0316 µM
[34] = second compound 0.3 µM, first compound 0.1 µM
[35] = second compound 0.3 µM, first compound 0.316 µM
[36] = second compound 0.3 µM, first compound 1 µM
[37] = second compound 0.000949 µM, first compound 3.16 µM
[38] = second compound 0.000949 µM, first compound 10 µM
[39] = second compound 0.003 µM, first compound 3.16 µM
[40] = second compound 0.003 µM, first compound 10 µM
[41] = second compound 0.00949 µM, first compound 3.16 µM
[42] = second compound 0.00949 µM, first compound 10 µM
[43] = second compound 0.03 µM, first compound 3.16 µM
[44] = second compound 0.03 µM, first compound 10 µM
[45] = second compound 0.0949 µM, first compound 3.16 µM
[46] = second compound 0.0949 µM, first compound 10 µM
[47] = second compound 0.3 µM, first compound 3.16 µM
[48] = second compound 0.3 µM, first compound 10 µM
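Also: spheroids exposed to agents for seven days before viability readout.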
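For viability, T/C in this document: 100% = DMSO vehicle control viability.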

IC50 (second compound 0.000949 µM): > 1000 nM
IC50 (second compound 0.003 µM): 522 nM
IC50 (second compound 0.00949 µM): 216 nM
IC50 (second compound 0.03 µM): 3.16 nM
IC50 (second compound 0.0949 µM): < 3.16 nM
IC50 (second compound 0.3 µM): < 3.16 nM
Compound: C=CC(=O)Nc1cc(Nc2nccc(-c3cn(C)c4ccccc34)n2)c(OC)cc1N(C)CCN(C)C + CCn1c(-c2cc(N3CCN(C)CC3)cnc2C(C)OC)c2c3cc(ccc31)-c1csc(n1)CC(NC(=O)C1CC1C)C(=O)N1CCCC(N1)C(=O)OCC(C)(C)C2
viability, T/C [1]: 106%
viability, T/C [2]: 102%
viability, T/C [3]: 119%
viability, T/C [4]: 101%
viability, T/C [5]: 84.1%
viability, T/C [6]: 56.3%
viability, T/C [7]: 113%
viability, T/C [8]: 109%
viability, T/C [9]: 104%
viability, T/C [10]: 81.9%
viability, T/C [11]: 54.7%
viability, T/C [12]: 43.7%
viability, T/C [13]: 77.3%
viability, T/C [14]: 80.4%
viability, T/C [15]: 72%
viability, T/C [16]: 63%
viability, T/C [17]: 43.6%
viability, T/C [18]: 28.7%
viability, T/C [19]: 44.4%
viability, T/C [20]: 48.8%
viability, T/C [21]: 48.4%
viability, T/C [22]: 54.9%
viability, T/C [23]: 34.5%
viability, T/C [24]: 32.4%
viability, T/C [25]: 30.8%
viability, T/C [26]: 34.1%
viability, T/C [27]: 36.6%
viability, T/C [28]: 36.9%
viability, T/C [29]: 34.7%
viability, T/C [30]: 33%
viability, T/C [31]: 39.2%
viability, T/C [32]: 33.1%
viability, T/C [33]: 39.1%
viability, T/C [34]: 37.3%
viability, T/C [35]: 33.5%
viability, T/C [36]: 32.5%

IC50 (second compound 0.000949 µM): 7560 nM
IC50 (second compound 0.003 µM): 5480 nM
IC50 (second compound 0.00949 µM): 2380 nM
IC50 (second compound 0.03 µM): < 31.6 nM
IC50 (second compound 0.0949 µM): < 31.6 nM
IC50 (second compound 0.3 µM): < 31.6 nM
Compound: CC(C)NCC(C(=O)N1CCN(c2ncnc3c2C(C)CC3O)CC1)c1ccc(Cl)cc1 (stereo not drawn) + CCn1c(-c2cc(N3CCN(C)CC3)cnc2C(C)OC)c2c3cc(ccc31)-c1csc(n1)CC(NC(=O)C1CC1C)C(=O)N1CCCC(N1)C(=O)OCC(C)(C)C2
viability, T/C [3]: 109%
viability, T/C [4]: 106%
viability, T/C [5]: 102%
viability, T/C [6]: 106%
viability, T/C [37]: 78.2%
viability, T/C [38]: 41%
viability, T/C [9]: 113%
viability, T/C [10]: 107%
viability, T/C [11]: 103%
viability, T/C [12]: 105%
viability, T/C [39]: 67.5%
viability, T/C [40]: 30.9%
viability, T/C [15]: 96.1%
viability, T/C [16]: 85.1%
viability, T/C [17]: 81.7%
viability, T/C [18]: 82.1%
viability, T/C [41]: 39.6%
viability, T/C [42]: 21.6%
viability, T/C [21]: 50.8%
viability, T/C [22]: 40%
viability, T/C [23]: 36.5%
viability, T/C [24]: 47.7%
viability, T/C [43]: 26.1%
viability, T/C [44]: 14.5%
viability, T/C [27]: 43.7%
viability, T/C [28]: 34.9%
viability, T/C [29]: 33.3%
viability, T/C [30]: 25.9%
viability, T/C [45]: 22%
viability, T/C [46]: 11.1%
viability, T/C [33]: 52%
viability, T/C [34]: 29.9%
viability, T/C [35]: 32.8%
viability, T/C [36]: 26.6%
viability, T/C [47]: 19.4%
viability, T/C [48]: 11.1%

IC50 (second compound 0.000949 µM): > 10000 nM
IC50 (second compound 0.003 µM): > 10000 nM
IC50 (second compound 0.00949 µM): 281 nM
IC50 (second compound 0.03 µM): < 31.6 nM
IC50 (second compound 0.0949 µM): < 31.6 nM
IC50 (second compound 0.3 µM): < 31.6 nM
Compound: CC(Nc1ccc2c(c1)OCCn1cc(N3C(=O)OCC3C(F)F)nc1-2)C(N)=O (stereo not drawn) + CCn1c(-c2cc(N3CCN(C)CC3)cnc2C(C)OC)c2c3cc(ccc31)-c1csc(n1)CC(NC(=O)C1CC1C)C(=O)N1CCCC(N1)C(=O)OCC(C)(C)C2
viability, T/C [3]: 114%
viability, T/C [4]: 106%
viability, T/C [5]: 103%
viability, T/C [6]: 117%
viability, T/C [37]: 94.6%
viability, T/C [38]: 74.5%
viability, T/C [9]: 109%
viability, T/C [10]: 99.5%
viability, T/C [11]: 85.5%
viability, T/C [12]: 83.2%
viability, T/C [39]: 91.4%
viability, T/C [40]: 69%
viability, T/C [15]: 90.9%
viability, T/C [16]: 63.5%
viability, T/C [17]: 48.4%
viability, T/C [18]: 48.9%
viability, T/C [41]: 47.7%
viability, T/C [42]: 48%
viability, T/C [21]: 37.4%
viability, T/C [22]: 41.2%
viability, T/C [23]: 28.6%
viability, T/C [24]: 37.1%
viability, T/C [43]: 38.1%
viability, T/C [44]: 28.2%
viability, T/C [27]: 33.3%
viability, T/C [28]: 31.9%
viability, T/C [29]: 28.7%
viability, T/C [30]: 25.9%
viability, T/C [45]: 23.2%
viability, T/C [46]: 25.3%
viability, T/C [33]: 37.8%
viability, T/C [34]: 40.5%
viability, T/C [35]: 27.5%
viability, T/C [36]: 29.3%
viability, T/C [47]: 25.3%
viability, T/C [48]: 23.5%

IC50 (second compound 0.000949 µM): 41.4 nM
IC50 (second compound 0.003 µM): 22.6 nM
IC50 (second compound 0.00949 µM): 6.67 nM
IC50 (second compound 0.03 µM): < 3.16 nM
IC50 (second compound 0.0949 µM): < 3.16 nM
IC50 (second compound 0.3 µM): < 3.16 nM
Compound: O=C(c1ccc(F)c(F)c1Nc1ccc(I)cc1F)N1CC(O)([C@@H]2CCCCN2)C1 + CCn1c(-c2cc(N3CCN(C)CC3)cnc2C(C)OC)c2c3cc(ccc31)-c1csc(n1)CC(NC(=O)C1CC1C)C(=O)N1CCCC(N1)C(=O)OCC(C)(C)C2
viability, T/C [1]: 115%
viability, T/C [2]: 87.5%
viability, T/C [3]: 58.6%
viability, T/C [4]: 27%
viability, T/C [5]: 12.1%
viability, T/C [6]: 3.52%
viability, T/C [7]: 101%
viability, T/C [8]: 73.3%
viability, T/C [9]: 39%
viability, T/C [10]: 20.6%
viability, T/C [11]: 5.3%
viability, T/C [12]: 2.66%
viability, T/C [13]: 66.8%
viability, T/C [14]: 39.9%
viability, T/C [15]: 24.2%
viability, T/C [16]: 15.7%
viability, T/C [17]: 2.25%
viability, T/C [18]: 2.11%
viability, T/C [19]: 32.5%
viability, T/C [20]: 30.3%
viability, T/C [21]: 21.2%
viability, T/C [22]: 3.47%
viability, T/C [23]: 1.98%
viability, T/C [24]: 1.79%
viability, T/C [25]: 30.1%
viability, T/C [26]: 19.2%
viability, T/C [27]: 4.14%
viability, T/C [28]: 1.63%
viability, T/C [29]: 1.65%
viability, T/C [30]: 1.53%
viability, T/C [31]: 25.9%
viability, T/C [32]: 18.8%
viability, T/C [33]: 2.37%
viability, T/C [34]: 1.55%
viability, T/C [35]: 1.12%
viability, T/C [36]: 1.16%
